Laboratory results from article PMC10778626, “Efficacy of Novel Quaternary Ammonium and Phosphonium Salts Differing in Cation Type and Alkyl Chain Length against Antibiotic-Resistant Staphylococcus aureus” (International Journal of Molecular Sciences, 2023).

What was measured:
[1] = tested on: S. aureus RN4220; experiment: MIC/MBC by broth microdilution, S. aureus RN4220; assay type: cell-based; settings: Staphylococcus aureus
Protocol: S. aureus CECT 976, obtained from the Spanish Type Culture Collection, was used as the standard susceptibility testing control strain. This strain has been previously employed in diverse studies to validate the antimicrobial effects of novel molecules. Additional antibiotic-resistant strains, S. aureus XU212, SA1199B, and RN4220, generously provided by S. Gibbons (University College London, London, UK) were tested. […] The SA1199B strain is characterized by its resistance to fluoroquinolones due to the overexpression of the NorA efflux pump and its ciprofloxacin resistance.
The minimum inhibitory concentration (MIC) and minimum bactericidal concentration (MBC) values of all QHSs were determined by the broth microdilution method, according to the approved M7-A7 (aerobes) standards of the Clinical and Laboratory Standards Institute (CLSI) guidelines. Overnight cell cultures of S. aureus, in the exponential phase of growth, were adjusted to an optical density (OD) of 0.132 ± 0.02 (λ = 600 nm). Then, a volume of 180 µL of the cell suspension was added to sterile, flat, clear-bottomed polystyrene (PS) 96-well microtiter plates (VWR—Radnor, PA, USA), already containing 20 µL of each QHS under study at concentrations ranging from 0.0625 to 64 µg/mL. In the end, the volume of each compound never exceeded 10% (v/v) of the well volume. Microtiter plates were then incubated for 24 h at 37 °C under agitation (150 rpm; INCU-Line IL 150R incubator). Absorbance measurements were performed at the beginning (t = 0 h) and end (t = 24 h) of the incubation period using a microtiter plate absorbance reader (BMG LABTECH FLUOstar Omega). Bacterial suspensions with DMSO and without QHSs were used as negative controls. […] All tests were performed with six replicates and a minimum of three independent repeats.
Plates were incubated at 37 °C for 24 h, and growth was visually inspected. The MBC was determined as the lowest concentration of compound in which the total inhibition of growth on solid medium was observed (no colony forming units (CFUs) were detected). All tests were performed in triplicate, and with a minimum of three independent repeats.

[2] = tested on: S. aureus CECT 976; experiment: Quantitative suspension test, dose-response against planktonic bacteria; assay type: cell-based, Staphylococcus aureus; settings: 30 min exposure; for concentration inducing reductions in S. aureus log CFU/mL > 5 / MBC: S. aureus CECT 976; for MBC: Staphylococcus aureus, CECT976, 0.5 h, 37 °C, distilled water
Protocol: A quantitative suspension test to explore the dose–response relationships of QHSs by evaluating bactericidal activity was performed. For this method, overnight grown cultures were centrifuged (VWR Mega Star 600R) at 3772× g for 10 min and washed twice with phosphate-buffered saline (PBS; 1.44 g/L of […]—Labkem, Barcelona, Spain; 8 g/L of sodium chloride, 0.2 g/L of potassium chloride, and 0.24 g/L of potassium dihydrogen phosphate—VWR, Leuven, Belgium) at pH 7.4. The collected cells were resuspended in PBS and adjusted to an optical density (OD) of 0.132 ± 0.02 (λ = 600 nm). Afterwards, 100 µL of this cell suspension was aseptically transferred to 800 µL of DW and allowed to stand for 2 min. To this mixture, 100 µL of each QHS solution diluted in DMSO at the desired concentration was added. The dose–response evaluation took place for 30 min at 37 °C. In the case of the negative control (untreated cells), the QHS solution was replaced by an equal volume of DMSO or DW. At the end of the contact time, QHS neutralization was performed through the dilution-neutralization method using a universal neutralizer (1 g/L L-histidine (Merck—Tokyo, Japan), 3 g/L lecithin (Alfa Aesar—Karlsruhe, Germany), 5 g/L sodium thiosulphate (Labkem—Barcelona, Spain), 30 g/L saponin (VWR Chemicals—Leuven, Belgium), and 30 g/L polysorbate 80 (VWR Chemicals—Le Havre, France) in 0.0025 M phosphate buffer). For neutralization, the test blend (100 µL) was added to 800 µL sterile aqueous neutralizing solution and 100 µL of DW. The mixture was gently agitated and allowed to stand for 10 min, after which serial dilutions (up to 10^−5) in sterile saline solution (0.85% w/v NaCl) were prepared. Then, 10 µL of each serial dilution was plated into Petri dishes containing PCA by the drop-plating method. The plates were allowed to set, then inverted and placed in an incubator at 37 °C for 24 h. The surviving cells on the QHS neutralized samples were determined by CFU counting on each plate, ensuring the counting of dilution plates that gave between 10 and 100 CFUs. The antibacterial activity was evaluated by quantification of logarithmic reduction (log CFU/mL), according to Equation (2). log CFU/mL reduction = log (X) − log (X0), (2) where X0 and X are the counts of CFU/mL before (untreated control cells) and after quaternary salt exposure, respectively.
The QHS concentrations chosen for conducting the dose–response tests comprise of the MBC, which causes the complete reduction of planktonic cells, as well as lower concentrations. Specifically, compound 1e was evaluated at concentrations of 0.25, 0.5, 0.75, 1, 2, 4, 8, and 16 µg/mL, compound 7e at concentrations of 1, 2, 3.2, 3.5, 4, 8, and 16 µg/mL, compound 5e at concentrations of 0.5, 1, 1.3, 1.6, 2, 4, and 8 µg/mL, and compound 3e at concentrations of 0.5, 0.75, 1, 1.3, 1.6, 2, 4, and 8 µg/mL. In the case of compounds 2e, 6e, and 4e, concentrations tested were 0.5, 1, 1.6, 2, 4, and 8 µg/mL. All tests were performed in duplicate, and with a minimum of three independent repeats.
The Chick–Watson mathematical model, provided in Equation (3), is considered an adequate approach to validate the kinetics of dose–response data. log X/X0 = − Kdis C^n t (3) where X0 and X are the counts of CFU/mL before and after quaternary salt exposure, respectively; Kdis is a killing rate coefficient ((mL.µg^−1)^n.min^−1); C is the quaternary salt concentration (µg.mL^−1); n is the concentration exponent and t is the exposure time (min). The concentration dependence of killing (n) was determined using a toolbox for linear regression in GraphPad Prism (version 8.4.0, GraphPad Software, La Jolla, CA, USA). The quality of the model was evaluated through the regression coefficient (R^2).

## CCCCCCCCCCCCCC[P+](c1ccccc1)(c1ccccc1)c1ccccc1 [Compound 1e, Triphenyl(tetradecyl)phosphonium bromide]
[1]
  MBC: 2 µg/mL
  MIC: 1 µg/mL
[2]
  concentration inducing reductions in S. aureus log CFU/mL > 5: 0.7 μg/mL
  MBC: 1 µg/mL

## CCCCCCCCCCCCCC[n+]1ccn(C)c1.[Br-] [Compound 2e, 1-Methyl-3-tetradecyl-1H-imidazol-3-ium bromide]
[1]
  MBC: 8 µg/mL
  MIC: 4 µg/mL
[2]
  concentration inducing reductions in S. aureus log CFU/mL > 5: 2.8 μg/mL

## CCCCCCCCCCCCCC[n+]1ccc2ccccc2c1.[Br-] [Compound 3e, 2-Tetradecylisoquinolin-2-ium bromide]
[1]
  MBC: 4 µg/mL
  MIC: 2 µg/mL
[2]
  concentration inducing reductions in S. aureus log CFU/mL > 5: 1.2 μg/mL
  MBC: 1.3 µg/mL
[2]; at 1.3 μg/mL
  maximum log CFU/mL reduction: 6.0 log CFU/mL

## CCCCCCCCCCCCCC[n+]1ccc(C)cc1.[Br-] [Compound 4e, 4-Methyl-1-tetradecylpyridin-1-ium bromide]
[1]
  MBC: 8 µg/mL
  MIC: 4 µg/mL
[2]
  concentration inducing reductions in S. aureus log CFU/mL > 5: 3.5 μg/mL
[2]; at 4 μg/mL
  maximum log CFU/mL reduction: 5.9 log CFU/mL

## CCCCCCCCCCCCCC[n+]1cccc2ccccc21.[Br-] [Compound 5e, 1-Tetradecylquinolin-1-ium bromide]
[1]
  MBC: 8 µg/mL
  MIC: 2 µg/mL
[2]
  concentration inducing reductions in S. aureus log CFU/mL > 5: 1.2 μg/mL
  MBC: 1.3 µg/mL
[2]; at 1.3 μg/mL
  maximum log CFU/mL reduction: 6.0 log CFU/mL

## CCCCCCCCCCCCCC[n+]1ccccc1.[Br-] [Compound 6e, 1-Tetradecylpyridin-1-ium bromide]
[1]
  MBC: 8 µg/mL
  MIC: 4 µg/mL
[2]
  concentration inducing reductions in S. aureus log CFU/mL > 5: 3.2 μg/mL
[2]; at 4 μg/mL
  maximum log CFU/mL reduction: 5.9 log CFU/mL
